# Source: PubChem BioAssay (NCI)
#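 Results reflect a 48-hour exposure of cells in 96-well plates to compound at five concentrations. The concentration for full growth arrest is given as TGI.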
# Experiments:
# Test in all cases: NCI tumour cell line growth inhibition, 48 h
# A498 renal = tested on: A498 renal
# A549 NSCLC = tested on: A549 NSCLC
# CAKI-1 renal = tested on: CAKI-1 renal
# CCRF-CEM leukemia = tested on: CCRF-CEM leukemia
# COLO 205 colon = tested on: COLO 205 colon
# DLD-1 colon = tested on: DLD-1 colon
# DMS 114 small cell lung = tested on: DMS 114 small cell lung
# DMS 273 small cell lung = tested on: DMS 273 small cell lung
# EKVX NSCLC = tested on: EKVX NSCLC
# HCC-2998 colon = tested on: HCC-2998 colon
# HCT-116 colon = tested on: HCT-116 colon
# HCT-15 colon = tested on: HCT-15 colon
# HL-60(TB) leukemia = tested on: HL-60(TB) leukemia
# HOP-18 NSCLC = tested on: HOP-18 NSCLC
# HOP-62 NSCLC = tested on: HOP-62 NSCLC
# HOP-92 NSCLC = tested on: HOP-92 NSCLC
# HT29 colon = tested on: HT29 colon
# IGROV1 ovarian = tested on: IGROV1 ovarian
# K-562 leukemia = tested on: K-562 leukemia
# KM12 colon = tested on: KM12 colon
# KM20L2 colon = tested on: KM20L2 colon
# LOX IMVI melanoma = tested on: LOX IMVI melanoma
# M19-MEL melanoma = tested on: M19-MEL melanoma
# MALME-3M melanoma = tested on: MALME-3M melanoma
# MCF7 breast = tested on: MCF7 breast
# MOLT-4 leukemia = tested on: MOLT-4 leukemia
# NCI-H226 lung = tested on: NCI-H226 lung
# NCI-H23 lung = tested on: NCI-H23 lung
# NCI-H460 lung = tested on: NCI-H460 lung
# NCI-H522 lung = tested on: NCI-H522 lung
# NCI/ADR-RES ovarian = tested on: NCI/ADR-RES ovarian
# OVCAR-3 ovarian = tested on: OVCAR-3 ovarian
# OVCAR-4 ovarian = tested on: OVCAR-4 ovarian
# OVCAR-5 ovarian = tested on: OVCAR-5 ovarian
# OVCAR-8 ovarian = tested on: OVCAR-8 ovarian
# P388 leukemia = tested on: P388 leukemia
# P388/ADR leukemia = tested on: P388/ADR leukemia
# RPMI-8226 leukemia = tested on: RPMI-8226 leukemia
# RXF 393 renal = tested on: RXF 393 renal
# SF-268 CNS = tested on: SF-268 CNS
# SF-295 CNS = tested on: SF-295 CNS
# SF-539 CNS = tested on: SF-539 CNS
# SK-MEL-2 melanoma = tested on: SK-MEL-2 melanoma
# SK-MEL-28 melanoma = tested on: SK-MEL-28 melanoma
# SK-MEL-5 melanoma = tested on: SK-MEL-5 melanoma
# SK-OV-3 ovarian = tested on: SK-OV-3 ovarian
# SN12C renal = tested on: SN12C renal
# SN12K1 renal = tested on: SN12K1 renal
# SNB-19 CNS = tested on: SNB-19 CNS
# SNB-75 CNS = tested on: SNB-75 CNS
# SW-620 colon = tested on: SW-620 colon
# U251 CNS = tested on: U251 CNS
# UACC-257 melanoma = tested on: UACC-257 melanoma
# UACC-62 melanoma = tested on: UACC-62 melanoma
# UO-31 renal = tested on: UO-31 renal
# XF 498 CNS = tested on: XF 498 CNS
# 786-0 renal = tested on: 786-0 renal
# ACHN renal = tested on: ACHN renal
# LXFL 529 NSCLC = tested on: LXFL 529 NSCLC
# M14 melanoma = tested on: M14 melanoma
# RXF-631 renal = tested on: RXF-631 renal
# SNB-78 CNS = tested on: SNB-78 CNS
# SR leukemia = tested on: SR leukemia
# TK-10 renal = tested on: TK-10 renal
smiles,measurement,setting,value
CCCCS(=O)CC(CO)NC(=O)/C=C/c1c(C)[nH]c(=O)[nH]c1=O (stereo not drawn),TGI,A498 renal,32.5 µM
same,TGI,A549 NSCLC,87.1 µM
same,TGI,CAKI-1 renal,114 µM
same,TGI,CCRF-CEM leukemia,51 µM
same,TGI,COLO 205 colon,53.4 µM
same,TGI,DLD-1 colon,72.1 µM
same,TGI,DMS 114 small cell lung,25.1 µM
same,TGI,DMS 273 small cell lung,52.7 µM
same,TGI,EKVX NSCLC,43 µM
same,TGI,HCC-2998 colon,30 µM
same,TGI,HCT-116 colon,88.2 µM
same,TGI,HCT-15 colon,183 µM
same,TGI,HL-60(TB) leukemia,21.5 µM
same,TGI,HOP-18 NSCLC,183 µM
same,TGI,HOP-62 NSCLC,45 µM
same,TGI,HOP-92 NSCLC,101 µM
same,TGI,HT29 colon,122 µM
same,TGI,IGROV1 ovarian,35.4 µM
same,TGI,K-562 leukemia,82.1 µM
same,TGI,KM12 colon,49.7 µM
same,TGI,KM20L2 colon,56.8 µM
same,TGI,LOX IMVI melanoma,40.9 µM
same,TGI,M19-MEL melanoma,18.1 µM
same,TGI,MALME-3M melanoma,14.6 µM
same,TGI,MCF7 breast,51 µM
same,TGI,MOLT-4 leukemia,50 µM
same,TGI,NCI-H226 lung,34 µM
same,TGI,NCI-H23 lung,44.6 µM
same,TGI,NCI-H460 lung,17.2 µM
same,TGI,NCI-H522 lung,21.4 µM
same,TGI,NCI/ADR-RES ovarian,93.2 µM
same,TGI,OVCAR-3 ovarian,15 µM
same,TGI,OVCAR-4 ovarian,26.4 µM
same,TGI,OVCAR-5 ovarian,89.8 µM
same,TGI,OVCAR-8 ovarian,32.4 µM
same,TGI,P388 leukemia,6.93 µM
same,TGI,P388/ADR leukemia,59.2 µM
same,TGI,RPMI-8226 leukemia,59.2 µM
same,TGI,RXF 393 renal,51.3 µM
same,TGI,SF-268 CNS,20.8 µM
same,TGI,SF-295 CNS,38.8 µM
same,TGI,SF-539 CNS,35.4 µM
same,TGI,SK-MEL-2 melanoma,23.4 µM
same,TGI,SK-MEL-28 melanoma,44.5 µM
same,TGI,SK-MEL-5 melanoma,21.5 µM
same,TGI,SK-OV-3 ovarian,65.3 µM
same,TGI,SN12C renal,49 µM
same,TGI,SN12K1 renal,24.1 µM
same,TGI,SNB-19 CNS,24.8 µM
same,TGI,SNB-75 CNS,30 µM
same,TGI,SW-620 colon,152 µM
same,TGI,U251 CNS,26.7 µM
same,TGI,UACC-257 melanoma,55 µM
same,TGI,UACC-62 melanoma,32 µM
same,TGI,UO-31 renal,73.3 µM
same,TGI,XF 498 CNS,14 µM
O=C(CC1C(=O)Nc2ccccc2S1(=O)=O)Nc1cccc(Cl)c1 (stereo not drawn),TGI,786-0 renal,29.1 µM
same,TGI,A498 renal,39.1 µM
same,TGI,A549 NSCLC,40.8 µM
same,TGI,ACHN renal,33.5 µM
same,TGI,CAKI-1 renal,41.2 µM
same,TGI,CCRF-CEM leukemia,47.2 µM
same,TGI,DLD-1 colon,32.7 µM
same,TGI,DMS 114 small cell lung,30.6 µM
same,TGI,DMS 273 small cell lung,29.4 µM
same,TGI,EKVX NSCLC,42.2 µM
same,TGI,HCC-2998 colon,32.1 µM
same,TGI,HCT-116 colon,32.1 µM
same,TGI,HCT-15 colon,31.5 µM
same,TGI,HL-60(TB) leukemia,44.1 µM
same,TGI,HOP-92 NSCLC,32.2 µM
same,TGI,HT29 colon,32.3 µM
same,TGI,IGROV1 ovarian,33.4 µM
same,TGI,K-562 leukemia,38.4 µM
same,TGI,KM20L2 colon,42.3 µM
same,TGI,LOX IMVI melanoma,28.6 µM
same,TGI,LXFL 529 NSCLC,38.3 µM
same,TGI,M14 melanoma,42.1 µM
same,TGI,M19-MEL melanoma,34.8 µM
same,TGI,MALME-3M melanoma,63.7 µM
same,TGI,MOLT-4 leukemia,32.3 µM
same,TGI,NCI-H226 lung,35.8 µM
same,TGI,NCI-H23 lung,37.9 µM
same,TGI,NCI-H460 lung,31.8 µM
same,TGI,NCI-H522 lung,31.7 µM
same,TGI,OVCAR-3 ovarian,29.6 µM
same,TGI,OVCAR-4 ovarian,36.6 µM
same,TGI,OVCAR-5 ovarian,59.1 µM
same,TGI,OVCAR-8 ovarian,33.1 µM
same,TGI,RPMI-8226 leukemia,24.1 µM
same,TGI,RXF 393 renal,31.7 µM
same,TGI,RXF-631 renal,45.3 µM
same,TGI,SF-268 CNS,30.1 µM
same,TGI,SF-295 CNS,54.3 µM
same,TGI,SF-539 CNS,22.8 µM
same,TGI,SK-MEL-2 melanoma,84 µM
same,TGI,SK-MEL-28 melanoma,38.7 µM
same,TGI,SK-MEL-5 melanoma,35.8 µM
same,TGI,SN12C renal,29.5 µM
same,TGI,SNB-19 CNS,46.8 µM
same,TGI,SNB-75 CNS,31.8 µM
same,TGI,SNB-78 CNS,> 100 µM
same,TGI,SR leukemia,40.7 µM
same,TGI,SW-620 colon,31.6 µM
same,TGI,TK-10 renal,46.6 µM
same,TGI,U251 CNS,26.4 µM
same,TGI,UACC-257 melanoma,50 µM
same,TGI,UACC-62 melanoma,30.3 µM
same,TGI,UO-31 renal,32.9 µM
same,TGI,XF 498 CNS,41.5 µM
Cc1cc2c(=O)cc(-c3ccc(F)cc3)oc2c(C(=O)O)c1C,TGI,786-0 renal,> 100 µM
same,TGI,A549 NSCLC,> 100 µM
same,TGI,ACHN renal,> 100 µM
same,TGI,CAKI-1 renal,> 100 µM
same,TGI,CCRF-CEM leukemia,> 100 µM
same,TGI,COLO 205 colon,> 100 µM
same,TGI,DLD-1 colon,> 100 µM
same,TGI,DMS 114 small cell lung,> 100 µM
same,TGI,DMS 273 small cell lung,> 100 µM
same,TGI,EKVX NSCLC,> 100 µM
same,TGI,HCT-116 colon,> 100 µM
same,TGI,HCT-15 colon,> 100 µM
same,TGI,HOP-18 NSCLC,> 100 µM
same,TGI,HT29 colon,> 100 µM
same,TGI,IGROV1 ovarian,> 100 µM
same,TGI,K-562 leukemia,> 100 µM
same,TGI,KM12 colon,> 100 µM
same,TGI,KM20L2 colon,> 100 µM
same,TGI,LOX IMVI melanoma,> 100 µM
same,TGI,LXFL 529 NSCLC,> 100 µM
same,TGI,M14 melanoma,> 100 µM
same,TGI,M19-MEL melanoma,> 100 µM
same,TGI,MALME-3M melanoma,> 100 µM
same,TGI,MOLT-4 leukemia,> 100 µM
same,TGI,NCI-H226 lung,> 100 µM
same,TGI,NCI-H23 lung,> 100 µM
same,TGI,NCI-H460 lung,> 100 µM
same,TGI,NCI-H522 lung,> 100 µM
same,TGI,OVCAR-3 ovarian,> 100 µM
same,TGI,OVCAR-4 ovarian,> 100 µM
same,TGI,OVCAR-5 ovarian,> 100 µM
same,TGI,OVCAR-8 ovarian,> 100 µM
same,TGI,RPMI-8226 leukemia,> 100 µM
same,TGI,RXF 393 renal,> 100 µM
same,TGI,RXF-631 renal,> 100 µM
same,TGI,SF-268 CNS,> 100 µM
same,TGI,SF-295 CNS,> 100 µM
same,TGI,SF-539 CNS,> 100 µM
same,TGI,SK-MEL-2 melanoma,> 100 µM
same,TGI,SK-MEL-28 melanoma,> 100 µM
same,TGI,SK-MEL-5 melanoma,> 100 µM
same,TGI,SK-OV-3 ovarian,> 100 µM
same,TGI,SN12C renal,> 100 µM
same,TGI,SNB-19 CNS,> 100 µM
same,TGI,SNB-75 CNS,> 100 µM
same,TGI,SNB-78 CNS,> 100 µM
same,TGI,SW-620 colon,> 100 µM
same,TGI,TK-10 renal,> 100 µM
same,TGI,U251 CNS,> 100 µM
same,TGI,UACC-257 melanoma,> 100 µM
same,TGI,UACC-62 melanoma,> 100 µM
same,TGI,UO-31 renal,> 100 µM
same,TGI,XF 498 CNS,> 100 µM
